Literature values as cited in patent publication US20220160693A1, “PHARMACEUTICAL COMPOSITION OF PROLYL HYDROXYLASE INHIBITOR AND PREPARATION METHOD THEREFOR” (Jiangsu Hengrui Medicine Co., Ltd., priority 2019, published 2022).

Tested on: prolyl hydroxylase

## O=C(O)CNC(=O)c1ncc(C#CCOc2ccc(Cl)cc2)cc1O [compound of formula (I), 2-(3-hydroxy-5-(3-p-chlorophenoxypropyn-1-yl))picolinamido acetic acid]
  Inhibition effect on prolyl hydroxylase (in words): excellent inhibition effect
